Values joined by “and” are separate entries in the source; they are usually repeats but may differ in a detail not shown here. Identical values can stand only once.
Columns and labels:
[1] = test system: right femoral fracture; experiment: Rat femoral transverse fracture model; type: in vivo, Male Sprague-Dawley rats; conditions: single percutaneous injection to fracture site immediately after surgery; 50 mg/ml, 300 ul, 15 mg/rat; day 21
Description: Male Sprague-Dawley rats at 3 to 4 months of age were used. The animals were anesthetized with ketamine and xylazine at doses of 100 and 10 mg/kg, respectively. The right hindlimb of each rat was shaved and cleaned. A 1 cm incision was made just lateral to the patella and the femoral condyle was exposed. A Kirschner wire (0.045″ in diameter) was introduced into the intramedullary canal through the intercondylar portion to serve as an internal stabilization. The muscle incision was closed with Vicryl® and the skin incision was closed with stainless steel wound clips. The mid-diaphysis of the pinned femur was fractured by means of a three-point bending device driven by a dropped weight. The rats were permitted full weight-bearing and unrestricted activity after awakening from anesthesia. The test agents were administered on various days after surgery by percutaneous injection onto the fracture site. The animals were sacrificed on various days after treatment and the femurs were collected for analysis. Fracture healing was evaluated by using radiography, histomorphometry and biomechanical test. (See, e.g., F. Bonnarens and T. A. Einhorn, “Production of a standard closed fracture in laboratory animal bone,” Journal of Orthopaedic Research 2:97-101 (1984).)
Male Sprague-Dawley rats at 3 to 4 months of age were subjected to right femoral fracture. […]

[2] = test system: subperiosteum of the femur; experiment: Rat periosteal injection model; type: in vivo, Male Sprague-Dawley rats; conditions: single injection in a polymer formulation, day 15
Description: Male Sprague-Dawley rats at 3 weeks of age were used. The rats were anesthetized with isoflurane inhalation ([…]) in a conduction chamber located in a fume hood. The right hindlimb of each rat was shaved and cleaned. A 25 G needle attached with a Hamilton syringe pre-filled with testing solution was used for the local injection. The solution was injected onto the subperiosteum of the anterior, mid-diaphyseal region of femur in a volume of 5 to 10 ul for various days. On day 15, the rats were sacrificed and the femurs were collected for analysis. (See, e.g., M. E. Joyce, A. B. Roberts, M. B. Sporn and M. Bolander, “Transforming growth factor-β and the initiation of chondrogenesis and osteogenesis in the rat femur,” The Journal of Cell Biology 110:2195-2207 (1990).) On day one, the right femurs of male Sprague-Dawley rats received single injection of vehicle or test compound in a polymer formulation. The test compound was the sodium salt of (3-(((4-tert-butyl-benzyl)-(pyridine-3-sulfonyl)-amino)-methyl)-phenoxy)-acetic acid. On day 15, all rats were sacrificed and the right femurs were collected for analysis. Periosteal bone induction was assessed by using radiography and dual-energy X-ray absorptiometry (DEXA).

[3] = test system: 1.5 cm segmental defect in the midulna; experiment: Dog ulnar segmental defect model; type: in vivo, dogs
Excerpt: The ulnar segmental defect model was used to test the efficacy of a single dose of the test compound (which was the sodium salt of (3-(((4-tert-butyl-benzyl)-(pyridine-3-sulfonyl)-amino)-methyl)-phenoxy)-acetic acid) in a PLGH formulation ([…]). The protocol was modified as follows: With animals under general anesthesia, the foreleg was prepped and draped in sterile fashion. A lateral incision approximately 10 cm in length was made and the ulna was exposed extraperiostally. Periosteum was cut and moved to the proximal and distal parts of the incision. Then a 1.5 cm segmental defect was made in the midulna using a pendular saw. The radius and the remaining interosseal membrane were left intact. The defect site was irrigated with saline to remove bone debris. The site was then filled with test compound in a slow-release matrix formulation, as described above. The dogs were divided into the following groups.
Radiographs of the forelimbs were obtained immediately following surgery and every two weeks thereafter until the termination of the study. Radiographs were graded on a 0 to 6 scale (Table 2).

[4] = test system: osteotomy on the distal portion of the dog tibia; experiment: Canine tibial osteotomy model; type: in vivo, Beagle male dogs; conditions: RG502H/NMP, 8 weeks, sodium salt
Excerpt: Normal fracture healing usually represents a biologically optimum healing process, as a result detecting an acceleration of healing in pre-clinical models that heal rapidly is both difficult and challenging. The test compound (which was the sodium salt of (3-(((4-tert-butyl-benzyl)-(pyridine-3-sulfonyl)-amino)-methyl)-phenoxy)-acetic acid) in a PLGH formulation (50% 50:50 PLGH (RG502H Grade)/50% NMP) was studied to determine its effect on accelerating healing in a rapidly healing canine osteotomy model. Enhancement of healing in this model supports potential applications of the test compound to heal normal fractures in humans since humans tend to heal fractures more slowly.
Beagle male dogs 12±3 kg, 14 months of age were used for the study. Dogs were divided into four groups of three to four animals each.
With animals under general anesthesia, the hindleg was prepped and draped in sterile fashion. A lateral incision approximately 4 cm in length was made. Surgical osteotomy was made on the distal portion of the dog tibia using a Gigli saw. The defect was stabilized using an AO plate. The fibula and the remaining interosseal membrane was left intact and the defect site was irrigated with saline to remove bone debris. The site was then filled with carrier as described above. Following surgery, animals were allowed full weight-bearing activity, and water and food ad libitum. […]

## CC(C)(C)c1ccc(CN(Cc2cccc(OCC(=O)[O-])c2)S(=O)(=O)c2cccnc2)cc1.[Na+] [test compound, (3-(((4-tert-butyl-benzyl)-(pyridine-3-sulfonyl)-amino)-methyl)-phenoxy)-acetic acid, sodium salt]
[1]
  calluses as assessed by radiography vs vehicle: larger and denser calluses
[2]
  bone mineral content (BMC) of the injected region of the femur by DEXA vs vehicle: significantly increased
[2]; anterior aspect of right femur
  periosteal bone induction by radiography: new bone formation
[3]; 50 mg/ml in 50% 50:50 PLGH (RG503H Grade)/50% NMP
  efficacy in formulation containing RG503H Grade: did not work well
[3]; 50 mg/ml in 50% 50:50 PLGH (RG503H Grade)/50% NMP, union achieved in some dogs
  union compared to RG502H Grade formulation: delayed
[3]; all treated groups vs none for vehicle controls
  treated animals healed, overall: 70-75%
[3]; by week 24, slow release matrix formulation RG502H/NMP
  remodeling of newly formed bone: remodeled back to the same shape and size as the contralateral bone
[3]; group B: 50 mg (1 ml of 50 mg/ml formulation), RG502H/NMP
  Complete rebridging/number of dogs: 2/4
[3]; group C: 10 mg (1 ml of 10 mg/ml formulation), RG502H/NMP
  Complete rebridging/number of dogs: 9/12
[3]; group C: 10 mg (1 ml of 10 mg/ml formulation), RG502H/NMP, two dogs
  Radiographic response: did not respond.
[3]; group D: 10 mg (0.2 ml of 50 mg/ml formulation), RG502H/NMP
  Complete rebridging/number of dogs: 3/4
[3]; groups B, C and D, slow release matrix formulation RG502H/NMP
  rebridgement of defect after a single application: complete rebridgement
[4]; group C: 5 mg (0.5 ml of 10 mg/ml formulation)
  Rebridging/number of dogs: Four out of four and 4/4
[4]; group D: 25 mg (0.5 ml of 50 mg/ml formulation)
  Rebridging/number of dogs: the other three showed significant healing and 3/4

— US8017144B2, “Controlled release polymeric compositions of bone growth promoting compounds” (Pfizer Inc., priority 2001, dated 2011)
